We go through 28 compounds from ChEMBL document CHEMBL5338786, “In Silico-Guided Rational Drug Design and Synthesis of Novel 4-(Thiophen-2-yl)butanamides as Potent and Selective TRPV1 Agonists” (J Med Chem, 2023).

The source made the active and inactive calls. Bounds are passed on as bounds.

Data set [1] deals with T1, Transient receptor potential cation channel subfamily A member 1 (Rattus norvegicus, UniProt Q6RI86). The data set can be described thus: (§1) Agonist activity at rat recombinant TRPA1 expressed in HEK293 cells assessed as increase in intracellular calcium accumulation by Fluo4-AM based assay. The class given is cell-based. Background: Calcium flux is commonly read through the fluorescence of an indicator in the cells.
T1 sequence (Q6RI86 whole entry): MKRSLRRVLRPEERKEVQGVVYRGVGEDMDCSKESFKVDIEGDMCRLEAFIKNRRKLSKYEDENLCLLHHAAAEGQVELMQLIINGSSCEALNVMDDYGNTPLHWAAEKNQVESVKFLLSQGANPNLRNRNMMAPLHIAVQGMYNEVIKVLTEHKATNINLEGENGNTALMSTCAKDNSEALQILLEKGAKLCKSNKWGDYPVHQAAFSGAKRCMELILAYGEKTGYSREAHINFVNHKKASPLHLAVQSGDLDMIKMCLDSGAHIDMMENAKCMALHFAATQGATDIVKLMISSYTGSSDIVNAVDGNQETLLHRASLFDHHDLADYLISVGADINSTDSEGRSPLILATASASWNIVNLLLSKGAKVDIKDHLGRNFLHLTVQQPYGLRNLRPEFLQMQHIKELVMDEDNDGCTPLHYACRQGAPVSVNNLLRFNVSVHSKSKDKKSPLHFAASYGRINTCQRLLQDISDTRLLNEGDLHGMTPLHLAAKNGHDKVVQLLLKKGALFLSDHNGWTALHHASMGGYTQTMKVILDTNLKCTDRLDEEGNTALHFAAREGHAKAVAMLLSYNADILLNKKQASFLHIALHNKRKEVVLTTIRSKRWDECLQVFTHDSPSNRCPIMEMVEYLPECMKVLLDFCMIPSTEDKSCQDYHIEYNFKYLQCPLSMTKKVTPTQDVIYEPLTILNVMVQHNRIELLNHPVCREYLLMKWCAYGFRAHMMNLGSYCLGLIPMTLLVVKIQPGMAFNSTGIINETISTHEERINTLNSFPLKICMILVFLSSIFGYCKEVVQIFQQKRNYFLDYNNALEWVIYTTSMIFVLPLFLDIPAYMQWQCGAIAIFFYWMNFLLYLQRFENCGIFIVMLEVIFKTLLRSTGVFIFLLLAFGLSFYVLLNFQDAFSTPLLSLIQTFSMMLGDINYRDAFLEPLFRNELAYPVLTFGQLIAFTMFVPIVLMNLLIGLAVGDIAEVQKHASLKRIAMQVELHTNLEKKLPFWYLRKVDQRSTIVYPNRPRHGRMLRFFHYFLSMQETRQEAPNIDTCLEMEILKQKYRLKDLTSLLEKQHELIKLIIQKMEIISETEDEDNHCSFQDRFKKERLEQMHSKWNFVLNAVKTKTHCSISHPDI

For data set [2], the target named is T1, Transient receptor potential cation channel subfamily A member 1. The data set can be described thus: Antagonist activity at rat recombinant TRPA1 expressed in HEK293 cells assessed as desensitization by measuring inhibition of allyl isothiocyanate induced intracellular calcium accumulation preincubated for 5 mins followed by allyl isothiocyanate stimulation by Fluo4-AM based assay. The class given is cell-based.

Data set [3] has as its system Mus musculus. As to the kind of experiment: Antinociceptive activity against formalin-induced nociception in C57BL/6J mouse assessed as total time of nociceptive response at 0.0015 ug per paw, sc pretreated for 10 min followed by formalin challenge and measured after 20 to 60 mins (reference value: 2.18 +/- 0.183 min). It counts as functional. The note with it: dose 0.0015 µg, time 30-70 min.

Data set [4] deals with Transient receptor potential cation channel subfamily V member 4 (Rattus norvegicus, UniProt Q9ERZ8). The data set can be described thus: Antagonist activity at rat recombinant TRPV4 expressed in HEK293 cells assessed as desensitization by measuring inhibition of GSK1016790A induced intracellular calcium accumulation preincubated for 5 mins by Fluo4-AM based assay. It counts as cell-based.
Chain of Transient receptor potential cation channel subfamily V member 4 (Q9ERZ8 whole entry): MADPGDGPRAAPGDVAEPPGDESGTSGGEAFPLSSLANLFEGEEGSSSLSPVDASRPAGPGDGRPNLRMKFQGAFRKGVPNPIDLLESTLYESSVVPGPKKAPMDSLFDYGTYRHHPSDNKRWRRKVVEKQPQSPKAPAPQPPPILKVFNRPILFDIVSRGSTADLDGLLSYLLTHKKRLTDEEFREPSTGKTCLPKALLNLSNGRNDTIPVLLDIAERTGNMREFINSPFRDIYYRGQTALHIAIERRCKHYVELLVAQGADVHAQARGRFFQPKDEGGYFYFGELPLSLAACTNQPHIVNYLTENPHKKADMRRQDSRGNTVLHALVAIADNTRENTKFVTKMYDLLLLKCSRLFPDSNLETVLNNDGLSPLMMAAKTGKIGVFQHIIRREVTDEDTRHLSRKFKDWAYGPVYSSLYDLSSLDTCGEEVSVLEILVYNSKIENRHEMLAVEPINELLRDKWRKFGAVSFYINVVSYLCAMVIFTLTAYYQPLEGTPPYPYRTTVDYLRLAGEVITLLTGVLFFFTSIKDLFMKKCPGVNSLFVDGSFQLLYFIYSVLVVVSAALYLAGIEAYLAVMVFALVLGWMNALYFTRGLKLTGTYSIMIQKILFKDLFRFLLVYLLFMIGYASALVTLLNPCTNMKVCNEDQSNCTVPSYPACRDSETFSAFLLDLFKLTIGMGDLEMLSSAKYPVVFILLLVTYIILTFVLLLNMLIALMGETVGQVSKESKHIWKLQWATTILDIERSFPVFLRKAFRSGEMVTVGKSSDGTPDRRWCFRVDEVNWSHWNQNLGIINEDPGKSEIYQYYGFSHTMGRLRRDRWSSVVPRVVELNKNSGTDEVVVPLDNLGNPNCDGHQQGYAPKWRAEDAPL

Data set [5] can be described thus: Toxicity in C57BL/6J mouse assessed as alteration in nociceptive threshold at 0.0075 to 0.15 ug per paw, sc measured after 10 mins. It counts as organism-based. The note with it: in vivo, dose 0.0075-0.15 µg.
For data set [6], the system named is Mus musculus. As to the kind of experiment: Antinociceptive activity against formalin-induced nociception in C57BL/6J mouse assessed as total time of nociceptive response at 0.0075 ug per paw, sc pretreated for 10 min followed by formalin challenge and measured after 20 to 60 mins (reference value: 2.18 +/- 0.183 min). The class given is functional. The following applies: dose 0.0075 µg, time 30-70 min.

In data set [7] the test system is Mus musculus. The data set can be described thus: Antinociceptive activity against formalin-induced nociception in C57BL/6J mouse assessed as total time of nociceptive response at 0.15 ug per paw, sc pretreated for 10 min followed by formalin challenge and measured after 20 to 60 mins (reference value: 2.18 +/- 0.183 min). It counts as functional. The following applies: dose 0.15 µg, time 30-70 min.

Data set [8] deals with Transient receptor potential cation channel subfamily M member 8 (Rattus norvegicus, UniProt Q8R455). As to the kind of experiment: Antagonist activity at rat recombinant TRPM8 expressed in HEK293 cells assessed as desensitization by measuring inhibition of icilin induced intracellular calcium accumulation preincubated for 5 mins by Fluo4-AM based assay. It counts as cell-based.
Chain of Transient receptor potential cation channel subfamily M member 8 (Q8R455 whole entry): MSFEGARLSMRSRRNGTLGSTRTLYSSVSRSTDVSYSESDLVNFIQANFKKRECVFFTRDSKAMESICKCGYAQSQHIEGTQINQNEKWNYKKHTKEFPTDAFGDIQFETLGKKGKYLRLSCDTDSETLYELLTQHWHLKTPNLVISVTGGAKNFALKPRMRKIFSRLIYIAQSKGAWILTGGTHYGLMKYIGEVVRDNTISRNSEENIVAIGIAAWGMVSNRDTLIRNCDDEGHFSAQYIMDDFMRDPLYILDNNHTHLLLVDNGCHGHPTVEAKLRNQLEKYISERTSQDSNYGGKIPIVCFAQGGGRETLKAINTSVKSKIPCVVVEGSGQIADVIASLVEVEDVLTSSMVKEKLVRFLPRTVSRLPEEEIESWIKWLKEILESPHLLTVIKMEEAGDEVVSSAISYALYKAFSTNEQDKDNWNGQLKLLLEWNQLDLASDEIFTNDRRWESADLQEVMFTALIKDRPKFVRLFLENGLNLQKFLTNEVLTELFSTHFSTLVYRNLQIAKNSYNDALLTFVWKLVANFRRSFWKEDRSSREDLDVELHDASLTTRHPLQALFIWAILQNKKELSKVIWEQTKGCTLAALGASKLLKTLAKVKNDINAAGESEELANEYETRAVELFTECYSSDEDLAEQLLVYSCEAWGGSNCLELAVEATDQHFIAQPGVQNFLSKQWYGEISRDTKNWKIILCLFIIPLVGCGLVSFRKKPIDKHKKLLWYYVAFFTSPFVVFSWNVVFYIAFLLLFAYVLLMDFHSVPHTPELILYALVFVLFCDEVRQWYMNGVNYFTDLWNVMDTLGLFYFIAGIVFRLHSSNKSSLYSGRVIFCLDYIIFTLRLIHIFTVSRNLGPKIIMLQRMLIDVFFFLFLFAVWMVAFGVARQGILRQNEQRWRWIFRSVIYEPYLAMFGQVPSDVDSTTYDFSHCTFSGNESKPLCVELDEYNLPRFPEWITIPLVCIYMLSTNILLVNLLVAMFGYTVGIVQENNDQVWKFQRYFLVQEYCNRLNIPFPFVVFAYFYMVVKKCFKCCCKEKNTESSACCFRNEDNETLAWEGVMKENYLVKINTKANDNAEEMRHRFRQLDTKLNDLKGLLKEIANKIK

The test system of a further data set is HUVEC. As to the kind of experiment: Cytotoxicity against HUVEC cells expressing TRPV1 receptors assessed as reduction in cell viability at 0.1 to 10 uM measured after 48 hrs by Alamar Blue assay. It counts as toxicity, cell-based. The note with it: human, dose 0.1-10 µM.
Another data set has as its system HaCaT. As to the kind of experiment: Cytotoxicity against human HaCaT cells expressing TRPV1 receptors assessed as reduction in cell viability at 0.1 to 10 uM measured after 48 hrs by Alamar Blue assay. The class given is toxicity, cell-based. The note with it: dose 0.1-10 µM. For orientation: Alamar Blue is a resazurin reagent that responds to reducing activity.

In data set [9] the target is T2, Transient receptor potential cation channel subfamily V member 1 (Homo sapiens, UniProt Q8NER1). The data set can be described thus: Antagonist activity at human recombinant TRPV1 expressed in HEK293 cells assessed as desensitization by measuring inhibition of capsaicin-induced intracellular calcium accumulation preincubated for 5 mins followed by capsaicin stimulation by Fluo4-AM based assay. The class given is cell-based.
T2 sequence (Q8NER1 whole entry): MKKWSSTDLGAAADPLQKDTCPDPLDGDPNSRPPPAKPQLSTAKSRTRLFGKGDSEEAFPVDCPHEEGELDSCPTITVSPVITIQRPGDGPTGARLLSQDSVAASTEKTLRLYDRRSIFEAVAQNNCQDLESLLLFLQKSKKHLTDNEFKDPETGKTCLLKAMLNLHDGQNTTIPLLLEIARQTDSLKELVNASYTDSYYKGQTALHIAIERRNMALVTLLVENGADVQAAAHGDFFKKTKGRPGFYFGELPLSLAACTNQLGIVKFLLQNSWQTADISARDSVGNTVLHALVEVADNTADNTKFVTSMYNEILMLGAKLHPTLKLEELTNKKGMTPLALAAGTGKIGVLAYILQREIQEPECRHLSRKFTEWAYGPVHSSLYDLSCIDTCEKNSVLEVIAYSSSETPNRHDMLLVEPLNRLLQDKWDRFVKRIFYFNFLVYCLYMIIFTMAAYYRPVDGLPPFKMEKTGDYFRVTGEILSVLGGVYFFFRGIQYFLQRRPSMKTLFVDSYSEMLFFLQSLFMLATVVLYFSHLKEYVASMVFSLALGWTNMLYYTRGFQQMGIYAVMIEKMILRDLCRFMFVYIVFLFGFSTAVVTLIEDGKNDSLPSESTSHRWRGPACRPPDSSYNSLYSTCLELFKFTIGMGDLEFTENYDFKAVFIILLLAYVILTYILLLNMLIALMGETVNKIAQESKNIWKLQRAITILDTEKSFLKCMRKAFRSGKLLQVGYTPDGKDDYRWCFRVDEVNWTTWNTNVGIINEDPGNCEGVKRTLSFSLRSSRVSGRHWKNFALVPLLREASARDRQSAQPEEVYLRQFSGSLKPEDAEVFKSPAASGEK

Data set [10] concerns the target Transient receptor potential cation channel subfamily A member 1 (Rattus norvegicus) (UniProt Q6RI86). Described as §1. It counts as cell-based.
Data set [11] shares this target. As to the kind of experiment: Agonist activity at rat recombinant TRPA1 expressed in HEK293 cells assessed as increase in intracellular calcium accumulation by measuring efficacy by Fluo4-AM based assay relative to allyl isothiocyanate. The class given is cell-based.
Data set [12] concerns the target T2, Transient receptor potential cation channel subfamily V member 1. As to the kind of experiment: Agonist activity at human recombinant TRPV1 expressed in HEK293 cells assessed as increase in intracellular calcium level by Fluo4-AM based assay. It counts as cell-based.
The target of data set [13] is Transient receptor potential cation channel subfamily V member 4 (Rattus norvegicus) (UniProt Q9ERZ8). The data set can be described thus: Agonist activity at rat recombinant TRPV4 expressed in HEK293 cells assessed as increase in intracellular calcium accumulation by measuring efficacy by Fluo4-AM based assay relative to ionomycin. The class given is cell-based. The note with it: filed as agonist.
Chain of Transient receptor potential cation channel subfamily V member 4 (Rattus norvegicus) (Q9ERZ8 whole entry): as the sequence (Q9ERZ8 whole entry) above

Chain of Transient receptor potential cation channel subfamily A member 1 (Rattus norvegicus) (Q6RI86 whole entry): as the sequence (Q6RI86 whole entry) above

For the compound `O=C(CCCc1ccc(I)s1)NCc1ccc(Cl)c(Cl)c1`, in [1], the EC50 (commonly the concentration needed to bring the measured effect to its halfway point) is more than 50 µM. Moreover, in data set [2], the concentration for half-maximal inhibition (IC50) – broadly, the midpoint of a concentration-inhibition curve – worked out at 19.2 µM.
Take `COc1ccc(CNC(=O)CCCc2ccccc2)cc1`: the concentration for half-maximal inhibition (IC50) in [2] is more than 100 µM.
The same measure, in the same setting: next, `O=C(CCCc1ccccc1)Nc1ccc(O)cc1`: more than 10 µM.
Consider `O=C(CCCc1ccc(-c2cccnc2)s1)NCc1ccc(Cl)c(Cl)c1`, for which the EC50 in [1] was determined as 10.4 µM. Moreover, the IC50 in data set [2] is more than 50 µM.
As to `COc1cc(CNC(=O)CCCc2ccc(-c3cccnc3)s2)ccc1O`, the values for the Time with Mus musculus [3], with Mus musculus [6] and with Mus musculus [7] were 0.758 min, 1.95 min and 0.618 min, respectively. Moreover, the IC50 in [4], in data set [2] and in data set [8] was more than 100 µM throughout. The Activity entry (in [5]; in the data set on HUVEC; with HaCaT) was “Non-Toxic” in each case.
In the case of `O=C(CCCc1cccs1)NCc1ccccc1`, the IC50 in data set [2] is more than 100 µM.
On the same count and under the same terms, as for `COc1ccc(CNC(=O)CCCc2ccc(I)s2)cc1`, the figure is more than 100 µM.
With `O=C(CCCc1ccc(-c2cccnc2)s1)NCc1ccccc1`, the IC50 in data set [9] and in data set [2] was more than 100 µM in each case. Further, in data set [10], the outcome was inactive. Also, the Efficacy in data set [11] was less than 10%. The EC50 in data set [12] is more than 10 µM.
`O=C(CCCc1ccc(-c2ccccc2)s1)NCc1ccccc1`: the half-maximal inhibitory concentration (IC50) in data set [2] is more than 100 µM.
On the same count and under the same terms, next, `O=C(CCCc1ccc(-c2ccccc2)s1)Nc1ccc(O)cc1`: more than 50 µM.
Regarding `O=C(CCCc1ccc(-c2cccnc2)s1)NCCc1ccc(O)c(O)c1`, the figures for the IC50 in [9] and in [2] were more than 10 µM and more than 100 µM, respectively. Moreover, in data set [10], the result was inactive. For the same compound, the Efficacy in data set [11] was less than 10%. In data set [12], the EC50 is more than 10 µM.
Regarding `O=C(CCCc1ccc(I)s1)NCCc1ccc(O)c(O)c1`, the IC50 was 0.46 µM in [9] and more than 100 µM in data set [2]. Moreover, the result in data set [10] was inactive. The Efficacy in [11] was less than 10%. Also, the EC50 in [12] came to 1.15 µM.
Consider `COc1ccc(CNC(=O)CCCc2ccc(-c3cccnc3)s2)cc1`, for which the IC50 in data set [9] and in data set [2] was more than 50 µM in each case. For the same compound, the EC50 in data set [1] and in data set [12] was more than 50 µM each time. Besides, the Efficacy in data set [11] came to 21%.
Regarding `O=C(CCCc1ccccc1)NCc1ccc(O)cc1`, the IC50 in [2] was more than 100 µM.
Regarding `O=C(CCCc1ccc(-c2cccnc2)s1)NCc1ccc(O)cc1`, the EC50 in [1] worked out at 27.1 µM. The IC50 in [2] was more than 50 µM.
On to `O=C(CCCc1ccc(-c2ccccc2)s1)NCc1ccc(O)cc1`, for which the IC50 in data set [2] was more than 50 µM.
As for `O=C(CCCc1ccccc1)NCc1ccc(Cl)c(Cl)c1`, the EC50 in [1] came out at 10.7 µM. Besides, the IC50 in data set [2] came to 11.9 µM.
As to `COc1cc(CNC(=O)CCCc2ccc(I)s2)ccc1O`, the IC50 is more than 50 µM in data set [4], more than 50 µM in [2] and 16.8 µM in [8]. Also, the Activity result (in [5]; with HUVEC; with HaCaT) was “Non-Toxic” in each case.
Take `O=C(CCCc1ccccc1)NCCc1ccc(O)c(O)c1`: the IC50 in data set [9] is 5.84 µM; in data set [2] it was more than 10 µM. For the same compound, in [10], the outcome was inactive. Moreover, the Efficacy in data set [11] was less than 10%. For the same compound, the EC50 in data set [12] is 2.63 µM.
`O=C(CCCc1ccc(-c2ccccc2)s1)NCc1ccc(Cl)c(Cl)c1`: the EC50 in data set [1] was 12 µM. Besides, the IC50 in data set [2] was more than 50 µM.
With `O=C(CCCc1ccc(I)s1)NCc1ccc(O)cc1`, in data set [2], the IC50 is more than 100 µM.
Turning to `CC(C)C[C@H](NC(=O)c1cc2ccccc2s1)C(=O)N1CCN(C(=O)[C@H](CO)NS(=O)(=O)c2ccc(Cl)cc2Cl)CC1`, the Efficacy in data set [13] amounted to 88.5%.
For the compound `O=C(CCCc1ccc(-c2cccnc2)s1)Nc1ccc(O)cc1`, the IC50 in data set [2] is more than 100 µM.
As to `O=C(CCCc1ccc(I)s1)Nc1ccc(O)cc1`, the EC50 in data set [1] amounted to 30.3 µM. Further, the IC50 in [2] was 44.1 µM.
For `COc1cc(CNC(=O)CCCc2ccc(-c3ccccc3)s2)ccc1O`, in [1], the EC50 was found to be 18.7 µM. Besides, the half-maximal inhibitory concentration (IC50) in data set [4] turned out to be 27.6 µM; in data set [2], 33.7 µM; in data set [8] it was 13.8 µM.
For the compound `O=C(CCCc1ccccc1)NCc1ccccc1`, the IC50 in [9] and in data set [2] was more than 100 µM throughout. Moreover, in [10], the result was inactive. Besides, the Efficacy in data set [11] is less than 10%. The EC50 in data set [12] was more than 50 µM.
In the case of `O=C(CCCc1ccc(I)s1)NCc1ccccc1`, the IC50 in data set [2] is more than 100 µM.
As for `COc1cc(CNC(=O)CCCc2ccccc2)ccc1O`, the EC50 in data set [1] worked out at 27.2 µM. In addition, the IC50 in data set [2] amounted to 44.5 µM.
